The nature of the data set: Particle size by dynamic light scattering (DLS) in aqueous solution. It counts as physicochemical. To be noted: 1 mL distilled water containing 5% DMSO, semaglutide fixed at 0.1 mg, semaglutide alone 0.1 mg/mL, RLC alone 1 mg/mL, mean ± S.D., n = 3. As for the experimental part: To determine the optimal formulation and final composition of the semaglutide–RLC nanoparticles (SRLC NPs), a precipitation evaluation experiment was conducted using various mass ratios (1:10, 1:20, 1:30, w/w) of semaglutide to RLC. Based on stability and particle size analysis, the 1:10 ratio was selected as the optimal formulation, and this ratio was maintained in the final product composition to ensure consistency in therapeutic efficacy and physicochemical properties. The resulting mixture was used immediately without undergoing a separate freeze-drying process. For nanoparticle preparation, semaglutide ([…]) was dissolved in 1 mL of DW, while RLC ([…]) was dissolved in 1 mL of DMSO. […] The stability of each formulation was assessed by measuring particle size at multiple time points (0, 0.5, 1, 2, 3, 4, and 5 days) using dynamic light scattering (DLS; Zetasizer Nano, Malvern Instruments, Worcestershire, UK). The zeta potential of both RLC alone and the semaglutide–RLC (1:10) formulation was also measured to evaluate the surface charge and colloidal stability of the nanoparticles. Additionally, in vivo stability was evaluated by preparing 1 mL of Dulbecco’s phosphate-buffered saline (DPBS) containing 10% fetal bovine serum (FBS) and 5% DMSO, followed by particle size measurements at different time points (0, 0.5, 1, and 2 days). […]

In turn, `CC(C)c1nc(N(C)S(C)(=O)=O)nc(-c2ccc(F)cc2)c1C=CC(O)CC(O)CC(=O)NCCNC(=O)CCC(C)C1CCC2C3C(O)CC4CC(O)CCC4(C)C3CCC12C` (stereo not shown) [RLC] came in with a particle size of 613.30 ± 26.86 nm.
